# Experimental data published in ChEMBL document CHEMBL1158889, “Antineoplastic agents 500. Narcistatin” (J Nat Prod, 2003).
# Columns and labels:
# physchem = conditions: aqueous (not further specified)
# Description: Aqueous solubility of the compound
# KM-20L2 = assay: Cytotoxicity against human KM20L2 cells; assay type: functional
# MCF7 = assay: Cytotoxicity against human MCF7 cells; assay type: functional
# NCI-H460 = assay: Cytotoxicity against human NCI-H460 cells; assay type: functional
# SF-268 = assay: Cytotoxicity against human SF268 cells; assay type: functional
# DU-145 = assay: Cytotoxicity against human DU145 cells; assay type: functional
# P388 = assay: Cytotoxicity against mouse P388 cells; assay type: functional; conditions: for EC50: read-out: ED50 (the source's name)
# BXPC-3 = assay: Cytotoxicity against human BxPC3 cells; assay type: functional
# [1] = buffer
# Description: Aqueous solubility of the compound
solubility [1],Compound,solubility (physchem),GI50 (KM-20L2),GI50 (MCF7),GI50 (NCI-H460),GI50 (SF-268),GI50 (DU-145),EC50 (P388),GI50 (BXPC-3),ED50 (P388)
,O=C1N[C@@H]2C(=C[C@H](O)[C@H]3OP(=O)([O-])O[C@H]32)c2cc3c(c(O)c21)OCO3.O=C1N[C@@H]2C(=C[C@H](O)[C@H]3OP(=O)([O-])O[C@H]32)c2cc3c(c(O)c21)OCO3.[Zn+2] [ZINC NARCISTATIN],1700 µg/mL,0.16 µg/mL,0.14 µg/mL,0.21 µg/mL,0.053 µg/mL,0.016 µg/mL,0.0287 µg/mL,0.069 µg/mL,
,C=C[C@@H]1CN2CC[C@@H]1C[C@@H]2[C@H](O)c1ccnc2ccc(OC)cc12.O=C1N[C@@H]2C(=C[C@H](O)[C@H]3OP(=O)(O)O[C@H]32)c2cc3c(c(O)c21)OCO3 [QUININIUM NARCISTATIN],,0.12 µg/mL,0.12 µg/mL,0.17 µg/mL,0.045 µg/mL,0.013 µg/mL,0.0342 µg/mL,0.051 µg/mL,
,O=C1N[C@@H]2C(=C[C@H](O)[C@H]3OP(=O)([O-])O[C@H]32)c2cc3c(c(O)c21)OCO3.[K+] [POTASSIUM NARCISTATIN],11000 µg/mL,0.56 µg/mL,0.4 µg/mL,0.67 µg/mL,0.19 µg/mL,0.26 µg/mL,0.242 µg/mL,0.36 µg/mL,
,C1COCCN1.O=C1N[C@@H]2C(=C[C@H](O)[C@H]3OP(=O)(O)O[C@H]32)c2cc3c(c(O)c21)OCO3 [MORPHOLINIUM NARCISTATIN],> 13000 µg/mL,0.54 µg/mL,0.48 µg/mL,> 1 µg/mL,0.24 µg/mL,0.14 µg/mL,0.232 µg/mL,0.25 µg/mL,
< 3000 µg/mL,MANGANESE NARCISTATIN [listing 1 of 2 here],,,,,,,,,
,O=C1N[C@@H]2C(=C[C@H](O)[C@H]3OP(=O)([O-])O[C@H]32)c2cc3c(c(O)c21)OCO3.[Li+] [LITHIUM NARCISTATIN],> 50000 µg/mL,0.26 µg/mL,0.31 µg/mL,0.3 µg/mL,0.17 µg/mL,0.13 µg/mL,0.121 µg/mL,0.25 µg/mL,
,O=C1N[C@@H]2C(=C[C@H](O)[C@H]3OP(=O)([O-])O[C@H]32)c2cc3c(c(O)c21)OCO3.[Cs+] [CESIUM NARCISTATIN],< 13000 µg/mL,0.66 µg/mL,0.62 µg/mL,> 1 µg/mL,0.33 µg/mL,0.13 µg/mL,0.183 µg/mL,0.41 µg/mL,
,C1CNCCN1.O=C1N[C@@H]2C(=C[C@H](O)[C@H]3OP(=O)(O)O[C@H]32)c2cc3c(c(O)c21)OCO3 [PIPERAZINIUM NARCISTATIN],1900 µg/mL,0.22 µg/mL,0.17 µg/mL,0.24 µg/mL,0.099 µg/mL,0.032 µg/mL,0.0378 µg/mL,0.1 µg/mL,
,O=C1N[C@@H]2C(=C[C@H](O)[C@H]3OP(=O)([O-])O[C@H]32)c2cc3c(c([O-])c21)OCO3.[Ca+2] [CALCIUM NARCISTATIN],< 1000 µg/mL,0.059 µg/mL,0.059 µg/mL,0.12 µg/mL,0.031 µg/mL,0.0093 µg/mL,0.0223 µg/mL,0.045 µg/mL,
,O=C1N[C@@H]2C(=C[C@H](O)[C@H]3OP(=O)([O-])O[C@H]32)c2cc3c(c([O-])c21)OCO3.[Mg+2] [MAGNESIUM NARCISTATIN],< 1500 µg/mL,0.31 µg/mL,0.25 µg/mL,0.29 µg/mL,0.14 µg/mL,0.1 µg/mL,0.17 µg/mL,0.19 µg/mL,
,O=C1N[C@@H]2C(=C[C@H](O)[C@H]3OP(=O)(O)O[C@H]32)c2cc3c(c(O)c21)OCO3.c1ccncc1 [PYRIDINIUM NARCISTATIN],,0.34 µg/mL,0.27 µg/mL,0.27 µg/mL,0.15 µg/mL,0.17 µg/mL,0.191 µg/mL,0.22 µg/mL,
,O=C1N[C@@H]2C(=C[C@H](O)[C@H]3OP(=O)(O)O[C@H]32)c2cc3c(c(O)c21)OCO3.c1c[nH]cn1 [IMIDAZOLIUM NARCISTATIN],5800 µg/mL,> 1 µg/mL,0.9 µg/mL,> 1 µg/mL,0.38 µg/mL,0.44 µg/mL,0.24 µg/mL,0.45 µg/mL,
,C=C[C@@H]1CN2CC[C@@H]1C[C@H]2[C@@H](O)c1ccnc2ccc(OC)cc12.O=C1N[C@@H]2C(=C[C@H](O)[C@H]3OP(=O)(O)O[C@H]32)c2cc3c(c(O)c21)OCO3 [QUINIDINIUM NARCISTATIN],,0.58 µg/mL,0.5 µg/mL,0.77 µg/mL,0.25 µg/mL,0.22 µg/mL,0.271 µg/mL,0.31 µg/mL,
,O=C1N[C@@H]2C(=C[C@H](O)[C@H]3OP(=O)(O)O[C@H]32)c2cc3c(c(O)c21)OCO3 [NARCISTATIN],4000 µg/mL,0.53 µg/mL,0.35 µg/mL,0.47 µg/mL,0.22 µg/mL,0.16 µg/mL,0.275 µg/mL,0.33 µg/mL,
,MANGANESE NARCISTATIN [listing 2 of 2 here],,0.13 µg/mL,0.07 µg/mL,0.15 µg/mL,0.04 µg/mL,0.034 µg/mL,,0.049 µg/mL,4.27 ×10⁻² µg/ml
,O=C1N[C@@H]2C(=C[C@H](O)[C@H]3OP(=O)([O-])O[C@H]32)c2cc3c(c(O)c21)OCO3.[Na+] [SODIUM NARCISTATIN],60000 µg/mL,0.45 µg/mL,0.56 µg/mL,> 1 µg/mL,0.23 µg/mL,0.12 µg/mL,0.255 µg/mL,0.32 µg/mL,
